Converted amounts (≈) assume the structure as drawn.
Columns and labels:
Type in all cases: cell-based
[1] = tested on: Enterococcus faecalis (ATCC29212); assay: Microtitre plate assay, IC90 determination (EFA 29212); conditions: 90% inhibitory concentration for bacterial growth, 37° C., resazurin fluorescence; for IC90 EFA 29212: 24 hours; for IC90: Enterococcus faecalis, ATCC29212, 24 h
Protocol: (§1) The bacteria used in this study were grown overnight in flasks containing 100 ml Mueller-Hinton Broth (Becton Dickinson—cat. no. 275730) in sterile de-ionized water, with shaking, at 37° C. Stocks (0.5 ml/tube) were stored at −70° C. until use. Bacteria titrations were performed in microtiter plates and colony forming units (CFUs) were determined. In general, an inoculum level of approximately 100 CFUs was used for susceptibility testing.
(§2) Flat-bottom, sterile 96-well plastic microtiter plates were filled with 180 μl of sterile deionized water, supplemented with 0.25% BSA. Subsequently, stock solutions (7.8× final test concentration) of compounds were added in 45 μl volumes in column 2 Serial five-fold dilutions (45 μl in 180 μl) were made directly in the microtiter plates from column 2 to reach column 11. Untreated control samples with (column 1) and without (column 12) inoculum were included in each microtiter plate. Depending on the bacteria type, approximately 10 to 60 CFU per well of bacteria inoculum (100 TCID50), in a volume of 100 μl in 2.8× Mueller-Hinton broth medium, was added to the rows A to H, except column 12. The same volume of broth medium without inoculum was added to column 12 in row A to H. The cultures were incubated at 37° C. for 24 hours under a normal atmosphere (incubator with open air valve and continuous ventilation). At the end of incubation, one day after inoculation, the bacterial growth was quantitated fluorometrically. Therefore resazurin (0.6 mg/ml) was added in a volume of 20 μl to all wells 3 hours after inoculation, and the plates were re-incubated overnight. A change in colour from blue to pink indicated the growth of bacteria. The fluorescence was read in a computer-controlled fluorometer (Cytofluor Biosearch) at an excitation wavelength of 530 nm and an emission wavelength of 590 nm. The % growth inhibition achieved by the compounds was calculated according to standard methods. The IC90 (expressed in μg/ml) was defined as the 90% inhibitory concentration for bacterial growth.

[2] = tested on: Pseudomonas aeruginosa (ATCC27853); assay: Microtitre plate assay, IC90 determination (PAE 27853); conditions: 90% inhibitory concentration for bacterial growth, 37° C., resazurin fluorescence; for IC90 PAE 27853: 24 hours; for IC90: Pseudomonas aeruginosa, ATCC27853, 24 h
Protocol: as §1, §2

[3] = tested on: Streptococcus pneumoniae (ATCC6305); assay: Microtitre plate assay, IC90 determination (SPN 6305); conditions: 90% inhibitory concentration for bacterial growth, 37° C., resazurin fluorescence; for IC90 SPN 6305: 24 hours; for IC90: Streptococcus pneumoniae, ATCC6305, 24 h
Protocol: as §1, §2

[4] = tested on: Streptococcus pyogens (ATCC8668); assay: Microtitre plate assay, IC90 determination (SPY 8668); conditions: 90% inhibitory concentration for bacterial growth, 37° C., resazurin fluorescence; for IC90 SPY 8668: 24 hours; for IC90: Streptococcus, ATCC8668, 24 h
Protocol: as §1, §2

[5] = tested on: Staphylococcus aureus (ATCC29213); assay: Microtitre plate assay, IC90 determination (STA 29213); conditions: 90% inhibitory concentration for bacterial growth, 37° C., resazurin fluorescence; for IC90 STA 29213: 24 hours; for IC90: Staphylococcus aureus, ATCC29213, 24 h
Protocol: as §1, §2

| IC90 EFA 29212 [1] | IC90 PAE 27853 [2] | IC90 SPN 6305 [3] | IC90 SPY 8668 [4] | IC90 STA 29213 [5] | IC90 [1] | IC90 [4] | IC90 [5] | IC90 [2] | IC90 [3] | SMILES |
| --- | --- | --- | --- | --- | --- | --- | --- | --- | --- | --- |
| 8.9 mg/L (≈ 15.8 µM) | 8.0 mg/L (≈ 14.2 µM) |  | 4.0 mg/L (≈ 7.1 µM) | 7.1 mg/L (≈ 12.6 µM) |  |  |  |  | 1.8 mg/L (≈ 3.19 µM) | COc1ccc(C(c2cc3cc(Br)ccc3nc2OC)C(O)(CCc2ccccc2)CCN(C)C)cc1 (centres unmarked) [Compound 73] |
| 9.3 mg/L (≈ 15.9 µM) | 1.9 mg/L (≈ 3.24 µM) | 1.5 mg/L (≈ 2.56 µM) | 1.9 mg/L (≈ 3.24 µM) | 7.4 mg/L (≈ 12.6 µM) |  |  |  |  |  | COc1nc2ccc(Br)cc2cc1C(c1ccc(Cl)cc1)C(O)(CCc1cccc(F)c1)CCN(C)C (centres unmarked) [Compound 78] |
|  |  |  |  |  | 58.6 mg/L (≈ 100 µM) | 46.5 mg/L (≈ 79.4 µM) | 9.3 mg/L (≈ 15.9 µM) | 46.5 mg/L (≈ 79.4 µM) | 2.3 mg/L (≈ 3.93 µM) | COc1nc2ccc(Br)cc2cc1C(c1ccc(Cl)cc1)C(O)(CCc1ccc(F)cc1)CCN(C)C (centres unmarked) [Compound 79] |
| 8.3 mg/L (≈ 14.2 µM) | 1.9 mg/L (≈ 3.24 µM) | 1.9 mg/L (≈ 3.24 µM) | 3.3 mg/L (≈ 5.63 µM) | 9.3 mg/L (≈ 15.9 µM) |  |  |  |  |  | COc1nc2ccc(Br)cc2cc1C(c1cccc(Cl)c1)C(O)(CCc1ccc(F)cc1)CCN(C)C (centres unmarked) [Compound 80] |
|  |  | 0.6 mg/L (≈ 1.02 µM) |  | 1.9 mg/L (≈ 3.24 µM) | 9.3 mg/L (≈ 15.9 µM) | 1.9 mg/L (≈ 3.24 µM) |  | 1.9 mg/L (≈ 3.24 µM) |  | COc1nc2ccc(Br)cc2cc1C(c1cccc(Cl)c1)C(O)(CCc1ccc(F)cc1)CCN(C)C (centres unmarked) [Compound 81] |
| 1.8 mg/L (≈ 3.18 µM) | 1.8 mg/L (≈ 3.18 µM) | 2.3 mg/L (≈ 4.07 µM) | 1.8 mg/L (≈ 3.18 µM) | 1.8 mg/L (≈ 3.18 µM) |  |  |  |  |  | COc1nc2ccc(Br)cc2cc1C(c1cccc(C)c1)C(O)(CCc1ccc(F)cc1)CCN(C)C (centres unmarked) [Compound 82] |
| 9.0 mg/L (≈ 15.9 µM) | 4.0 mg/L (≈ 7.07 µM) | 0.5 mg/L (≈ 0.884 µM) |  |  |  | 1.8 mg/L (≈ 3.18 µM) | 1.8 mg/L (≈ 3.18 µM) |  |  | COc1nc2ccc(Br)cc2cc1C(c1cccc(C)c1)C(O)(CCc1ccc(F)cc1)CCN(C)C (centres unmarked) [Compound 83] |
|  |  |  |  |  | 58.2 mg/L (≈ 100 µM) | 46.2 mg/L (≈ 79.4 µM) | 4.6 mg/L (≈ 7.91 µM) | 46.2 mg/L (≈ 79.4 µM) | 2.1 mg/L (≈ 3.61 µM) | COc1ccc(C(c2cc3cc(Br)ccc3nc2OC)C(O)(CCc2ccc(F)cc2)CCN(C)C)cc1 (centres unmarked) [Compound 84] |
|  |  | 2.3 mg/L (≈ 3.95 µM) |  | 9.2 mg/L (≈ 15.8 µM) | 11.6 mg/L (≈ 19.9 µM) | 5.2 mg/L (≈ 8.93 µM) |  | 9.2 mg/L (≈ 15.8 µM) |  | COc1nc2ccc(Br)cc2cc1C(c1ccc(Cl)cc1)C(O)(CCc1ccc(C)cc1)CCN(C)C (centres unmarked) [Compound 87] |

Second part, the molecule before the results:

| SMILES | IC90 EFA 29212 [1] | IC90 PAE 27853 [2] | IC90 SPN 6305 [3] | IC90 SPY 8668 [4] | IC90 STA 29213 [5] | IC90 [1] | IC90 [4] | IC90 [5] | IC90 [2] | IC90 [3] |
| --- | --- | --- | --- | --- | --- | --- | --- | --- | --- | --- |
| CCOCCOCCOc1nc2ccc(Br)cc2cc1C(c1ccccc1)C(O)(CCc1ccccc1)CCN(C)C (centres unmarked) [Compound 44] | 10.1 mg/L (≈ 15.9 µM) | 4.5 mg/L (≈ 7.08 µM) | 4.5 mg/L (≈ 7.08 µM) | 8.0 mg/L (≈ 12.6 µM) | 22.6 mg/L (≈ 35.6 µM) |  |  |  |  |  |
| COc1nc2ccc(Br)cc2cc1C(c1cccc(Cl)c1)C(O)(CCc1ccccc1)CCN(C)C (centres unmarked) [Compound 67] | 56.8 mg/L (≈ 100 µM) | 56.8 mg/L (≈ 100 µM) | 2.3 mg/L (≈ 4.05 µM) | 56.8 mg/L (≈ 100 µM) | 2.3 mg/L (≈ 4.05 µM) |  |  |  |  |  |
| COc1nc2ccc(Br)cc2cc1C(c1cccc(Cl)c1)C(O)(CCc1ccccc1)CCN(C)C (centres unmarked) [Compound 68] |  | 11.3 mg/L (≈ 19.9 µM) | 0.7 mg/L (≈ 1.23 µM) |  |  | 56.8 mg/L (≈ 100 µM) | 56.8 mg/L (≈ 100 µM) | 2.3 mg/L (≈ 4.05 µM) |  |  |
| COc1nc2ccc(Br)cc2cc1C(c1cccc(C)c1)C(O)(CCc1ccccc1)CCN(C)C (centres unmarked) [Compound 71] |  |  |  |  |  | 54.8 mg/L (≈ 100 µM) | 43.5 mg/L (≈ 79.4 µM) | 2.2 mg/L (≈ 4.02 µM) | 54.8 mg/L (≈ 100 µM) | 1.7 mg/L (≈ 3.1 µM) |
| COc1nc2ccc(Br)cc2cc1C(c1cccc(C)c1)C(O)(CCc1ccccc1)CCN(C)C (centres unmarked) [Compound 72] | 43.5 mg/L (≈ 79.4 µM) | 43.5 mg/L (≈ 79.4 µM) | 2.2 mg/L (≈ 4.02 µM) | 43.5 mg/L (≈ 79.4 µM) | 1.7 mg/L (≈ 3.1 µM) |  |  |  |  |  |
| COc1nc2ccc(Br)cc2cc1C(c1ccc(Cl)cc1)C(O)(CCc1cccc(F)c1)CCN(C)C (centres unmarked) [Compound 77] | 3.7 mg/L (≈ 6.31 µM) |  |  |  | 1.9 mg/L (≈ 3.24 µM) |  | 1.9 mg/L (≈ 3.24 µM) |  | 1.9 mg/L (≈ 3.24 µM) | 0.8 mg/L (≈ 1.37 µM) |
| COc1ccccc1CCC(O)(CCN(C)C)C(c1ccc(Cl)cc1)c1cc2cc(Br)ccc2nc1OC (centres unmarked) [Compound 88] |  |  |  |  |  | 37.7 mg/L (≈ 63 µM) | 1.9 mg/L (≈ 3.18 µM) | 9.5 mg/L (≈ 15.9 µM) | 2.1 mg/L (≈ 3.51 µM) | 0.5 mg/L (≈ 0.836 µM) |
